Here are results for five compounds from patent publication US7820811B2, “Pro-drugs of adenosine receptor agonists” (CBT Development Limited, priority 2006, dated 2010).

Structures are written as SMILES.

The conditions of data set [1]: oral administration; cited from earlier work.
Data set [2] has as its system streptozocin-induced diabetic neuropathy. Nature of the data set: streptozocin-induced diabetic neuropathy, static allodynia (von Frey hairs). Type of data set: in vivo, rats. On the procedure:
Diabetes was induced by a single i.p. injection of 50 mg/kg streptozocin (Sigma, 50 mg/ml/kg in citrate buffered saline 33 mM pH 4.5). Control animals received single i.p. injection of citrate buffered saline. […] Static allodynia was assessed using von Frey hairs and the paw withdrawal threshold (PWT) in grams (symbols represent the median and vertical bars represent the first and third quartiles) is indicated.

For data set [3], the system named is U937 human macrophage cells. The following applies: cited from earlier work.
The target in a further data set is adenosine A2A receptor (UniProt P30543). Nature of the data set: EC50 at the adenosine A2A receptor. Type of data set: biochemical. From the text:
For the avoidance of doubt, the EC50 value of a compound is defined herein as the concentration of the compound that provokes a receptor response halfway between the baseline receptor response and the maximum receptor response (as determined, for example, using a dose-response curve).
The EC50 value should be determined under standard conditions (balanced salt solutions buffered to pH 7.4). For EC50 determinations using isolated membranes, cells and tissues this would be in buffered salt solution at pH 7.4 (e.g. cell culture medium), for example as in Daly et al., Pharmacol. (1993) 46, 91-100), or preferably as in Tilburg et al (J. Med. Chem. (2002) 45, 91-100). The EC50 could also be determined in vivo by measuring adenosine receptor mediated responses in a normal healthy animal, or even in a tissue perfused under normal conditions (i.e. oxygenated blood, or oxygenated isotonic media, also buffered at pH 7.4) in a normal healthy animal.

The conditions of data set [4]: 20 mg/kg po; cited from earlier work.
Data set [5] deals with carageenan-induced oedema in a rat paw. The following applies: rats, 20 mg/kg po; cited from earlier work.
Data set [6] deals with rat adjuvant model of arthritis. The data set is described as follows: rat adjuvant model of arthritis, analgesic relief. Type of data set: in vivo.
The conditions of data set [7]: cynamalogous monkeys, cited from earlier work.
For data set [8] the following is noted: monkey, multiple oral dosing, 14C-labelled; cited from earlier work.

Turning to `Nc1nc2c(ncn2COCCO)c(=O)[nH]1` [Acyclovir], the “urinary excretion of Acyclovir” value in data set [1] is listed as 19%.
What is called EC50 is the concentration needed to bring the measured effect to its halfway point. A low value points to an effect from little substance. Turning to `COc1nc(N)c2ncn([C@@H]3O[C@H](CO)[C@@H](O)[C@H]3O)c2n1` [spongosine, 2-methoxyadenosine], in data set [2] (2.1 mg/kg dose cohort at 2, 3 and 4 hours), the “alleviation of allodynia at late time points” value is listed as “Significant alleviation of allodynia was still evident”. The “dose dependence of reversal of streptozocin induced static allodynia” value in data set [2] (0.6-2.1 mg/kg, po, STZ rats, PWT) is “dose dependant effects”. Moreover, in data set [2] (all doses 0.6-2.1 mg/kg po, STZ rats, PWT), the “reversal of static allodynia, all doses” value is given as “effective at reversing allodynia”. For the same compound, the “reversal of static allodynia, top dose” value in [2] (top dose (2.1 mg/kg po), versus naïve non-streptozocin injected controls) is “fully reversed the allodynia”. The “phorbol ester induced TNF alpha release” value in data set [3] is given as “reduce phorbol ester induced TNF alpha release”. For the same compound, the EC50 at adenosine A2A receptor is around 1 µM. In data set [4], the “reduction in heart rate” value was 25% and the “reduction in mean blood pressure” value was 41%. Also, the “inhibition of carageenan-induced inflammation” value in data set [5] is listed as 25%. Besides, in data set [6], the “minimum plasma concentration giving maximal analgesic relief” value is 0.06 µM.
Consider `Nc1ccn([C@@H]2C[C@@H](O)[C@H](CO)O2)c(=O)n1` [2′-deoxy-β-L-cytidine], for which the “oral bioavailability (of 2′-deoxy-β-L-cytidine)” value in data set [7] (oral) is 18%. In addition, in data set [7] (po), the “half-life (po)” value is recorded as 2.95 h.
In the case of `N=C(N)c1ncn([C@@H]2O[C@H](CO)[C@@H](O)[C@H]2O)n1` [Viramidine], in data set [8], the “drug level in red blood cells compared to Ribavarin” value is “only half” and the “drug level in the liver compared to Ribavarin” value is on record as “three times”.
`CC(C)[C@H](N)C(=O)OCCOCn1cnc2c(=O)[nH]c(N)nc21` [Valacyclovir]: the “urinary excretion of Acyclovir” value in [1] is reported as 63%.
